From patent EP0360258B1, “Amino acid quinoline and naphthyridine derivatives” (ABBOTT LABORATORIES, priority 1988, dated 1990)
In brackets after ≈: the same amount, converted by molar mass. Where a name gives a salt, the structure may show the parent alone. Read-outs that look alike come from different tables or passages of the source.

Tests used:
ESCHERICHIA COLI KNK 437 = assay: In vitro antibacterial activity, agar dilution MIC (BHIA); format: cell-based; details: Brain Heart Infusion Agar (BHIA), 36° C, 18 h, strain KNK 437
[1] = system: STREPTOCOCCUS BOVIS A5169; assay: as above; format: cell-based; details: Streptococcus equinus, 18 h
[2] = system: STREPTOCOCCUS PYOGENES 930 CONST; assay: as above; format: cell-based; details: 18 h
[3] = system: ENTEROBACTER AEROGENES ATCC 13048; assay: as above; format: cell-based; details: Klebsiella aerogenes
ESCHERICHIA COLI H560 = assay: as above; format: cell-based; details: 18 h
ESCHERICHIA COLI SS = assay: as above; format: cell-based; details: Brain Heart Infusion Agar (BHIA), 36° C, 18 h, strain SS
STR[…] EES61 = assay: as above; format: cell-based; details: Streptococcus pyogenes, 18 h
From the text: (§1) The MIC results are in ug/ml. TABLE VII

EN[…] ATCC 8043 = assay: as above; format: cell-based; details: Enterococcus faecium, ATCC8043, 18 h
From the text: as §1

M[…] ATCC 9341 = assay: as above; format: cell-based; details: Micrococcus luteus, ATCC9341, 18 h
From the text: as §1

STR[…] 508 = assay: as above; format: cell-based; details: Streptococcus agalactiae, 18 h
From the text: as §1

M[…] ATCC 4698 = assay: as above; format: cell-based; details: Micrococcus luteus, ATCC4698, 18 h
From the text: as §1

P[…] 296I = assay: as above; format: cell-based; details: Burkholderia cepacia, 18 h
From the text: as §1

STR[…] 2548 INDUC = assay: as above; format: cell-based; details: Streptococcus pyogenes, 18 h
[4] = system: PSEUDOMONAS AERUGINOSA K799/61; assay: as above; format: cell-based; details: Brain Heart Infusion Agar (BHIA), 36° C, 18 h, strain K799/61
ESCHERICHIA COLI DC-2 = assay: as above; format: cell-based; details: 18 h
[5] = system: PROVIDENCIA STUARTII CMX 640; assay: as above; format: cell-based; details: 18 h
ESCHERICHIA COLI JUHL = assay: as above; format: cell-based; details: 18 h
[6] = system: KLEBSIELLA PNEUMONIAE ATCC 8045; assay: as above; format: cell-based
ACINETOBACTER SP CMX 669 = assay: as above; format: cell-based; details: 18 h
[7] = system: PSEUDOMONAS AERUGINOSA BMH10; assay: as above; format: cell-based; details: 18 h
[8] = system: PSEUDOMONAS AERUGINOSA K799/WT; assay: In vitro antibacterial activity, agar dilution MIC (BHIA); format: cell-based; details: Brain Heart Infusion Agar (BHIA), 36° C, 18 h, strain K799/WT
From the text: as §1

[9] = system: PSEUDOMONAS AERUGINOSA A5007; assay: as above; format: cell-based; details: Brain Heart Infusion Agar (BHIA), 36° C, 18 h, strain A5007
From the text: as §1

[10] = Plasma level in dog after oral dose; format: in vivo; details: 10 mg/kg, 10 mg equivalent/kg oral dose, HPLC
From the text: The plasma samples were collected and determined by the HPLC analysis.

[11] = ATCC13048, Brain Heart Infusion Agar (BHIA), 36° C, 18 h, strain ATCC 13048, read-out: MIC
[12] = Brain Heart Infusion Agar (BHIA), 36° C, strain JUHL, read-out: MIC
[13] = ATCC8045, Brain Heart Infusion Agar (BHIA), 36° C, 18 h, strain ATCC 8045, read-out: MIC
[14] = Brain Heart Infusion Agar (BHIA), 36° C, strain CMX 669, read-out: MIC
[15] = Brain Heart Infusion Agar (BHIA), 36° C, strain BMH10, read-out: MIC
[16] = Brain Heart Infusion Agar (BHIA), 36° C, strain A5169, read-out: MIC
[17] = Brain Heart Infusion Agar (BHIA), 36° C, strain CMX 640, read-out: MIC

| Compound | MIC (ESCHERICHIA COLI KNK 437) [µg/mL] | MIC [1] [µg/mL] | MIC [2] [µg/mL] | MIC [3, 11] [µg/mL] | MIC (ESCHERICHIA COLI H560) [µg/mL] | MIC (ESCHERICHIA COLI SS) [µg/mL] | MIC (STR[…] EES61) [µg/mL] | MIC (EN[…] ATCC 8043) [µg/mL] | MIC (M[…] ATCC 9341) [µg/mL] | MIC (STR[…] 508) [µg/mL] | MIC (M[…] ATCC 4698) [µg/mL] | MIC (P[…] 296I) [µg/mL] | MIC (STR[…] 2548 INDUC) [µg/mL] | MIC [4] [µg/mL] | MIC (ESCHERICHIA COLI DC-2) [µg/mL] | MIC (ESCHERICHIA COLI JUHL; [12]) [µg/mL] | MIC [6, 13] [µg/mL] | MIC [7, 15] [µg/mL] | solubility (physchem; pH 7.4) [µg/mL] | solubility (physchem; water) [µg/mL] | further results |
| --- | --- | --- | --- | --- | --- | --- | --- | --- | --- | --- | --- | --- | --- | --- | --- | --- | --- | --- | --- | --- | --- |
| NCC(=O)N[C@@H](Cc1ccccc1)C(=O)NC1CCN(c2nc3c(cc2F)c(=O)c(C(=O)O)cn3-c2ccc(F)cc2F)C1 (stereo partly drawn) [Example 1b, 7-[(3-Gly-L-Phe-amino)-1-pyrrolidinyl]-1-(2,4-difluorophenyl)-6-fluoro-1,4-dihydro-4-oxo-1,8-naphthyridine-3-carboxylic acid hydrochloride] | 25 | 1.56 | 0.78 | 12.5 | 1.56 | 0.2 | 1.56 | 1.56 | 6.25 | 1.56 | 0.78 | 50 | 0.78 | 12.5 | 100 | 3.12 | 12.5 | 25 | 1040 | > 98000 | MIC [5]: 100 µg/mL; MIC (ACINETOBACTER SP CMX 669; [14]): 12.5 µg/mL |
| NC(Cc1ccccc1)C(=O)NC1CCN(c2nc3c(cc2F)c(=O)c(C(=O)O)cn3-c2ccc(F)cc2F)C1 (centres unmarked) [Example 5] | 100 (≈ 181 µM) |  |  |  | 3.1 (≈ 5.62 µM) | 0.1 (≈ 0.181 µM) | 3.1 (≈ 5.62 µM) | 3.1 (≈ 5.62 µM) | 25 (≈ 45.3 µM) | 3.1 (≈ 5.62 µM) | 12.5 (≈ 22.7 µM) | > 100 | 0.78 (≈ 1.41 µM) | 1.56 (≈ 2.83 µM) | 50 (≈ 90.7 µM) |  | 1.56 (≈ 2.83 µM) |  | 340 (≈ 616 µM) | > 101000 | MIC [1, 16]: 6.2 µg/mL (≈ 11.2 µM); MIC ([2]; Brain Heart Infusion Agar (BHIA), 36° C, strain 930 CONST, read-out: MIC): 1.56 µg/mL (≈ 2.83 µM); MIC ([3]; ATCC13048, 18 h): 12.5 µg/mL (≈ 22.7 µM); MIC [8]: 25 µg/mL (≈ 45.3 µM); MIC [9]: 50 µg/mL (≈ 90.7 µM); MIC [5, 17]: > 100 µg/mL; MIC (ESCHERICHIA COLI JUHL): 3.1 µg/mL (≈ 5.62 µM); MIC (ACINETOBACTER SP CMX 669): 12.5 µg/mL (≈ 22.7 µM); MIC [7]: 25 µg/mL (≈ 45.3 µM) |
| CC(N)C(=O)NC(C)C(=O)NC1CCN(c2nc3c(cc2F)c(=O)c(C(=O)O)cn3-c2ccc(F)cc2F)C1 (centres unmarked) [Example 15] | 50 (≈ 91.5 µM) |  | 12.5 (≈ 22.9 µM) | 25 (≈ 45.7 µM) |  | 0.39 (≈ 0.714 µM) | 12.5 (≈ 22.9 µM) | 50 (≈ 91.5 µM) | > 100 | 12.5 (≈ 22.9 µM) | 100 (≈ 183 µM) | 50 (≈ 91.5 µM) | 12.5 (≈ 22.9 µM) | 3.1 (≈ 5.67 µM) |  |  |  | 100 (≈ 183 µM) | 1070 (≈ 1960 µM) | > 70000 | MIC [1, 16]: 50 µg/mL (≈ 91.5 µM); MIC (ESCHERICHIA COLI H560; Brain Heart Infusion Agar (BHIA), 36° C, strain H560, read-out: MIC): 6.2 µg/mL (≈ 11.3 µM); MIC [8]: 50 µg/mL (≈ 91.5 µM); MIC (ESCHERICHIA COLI DC-2; Brain Heart Infusion Agar (BHIA), 36° C, strain DC-2, read-out: MIC): 100 µg/mL (≈ 183 µM); MIC [5, 17]: 100 µg/mL (≈ 183 µM); MIC (ESCHERICHIA COLI JUHL): 12.5 µg/mL (≈ 22.9 µM); MIC ([6]; ATCC8045, 18 h): 12.5 µg/mL (≈ 22.9 µM); MIC (ACINETOBACTER SP CMX 669): 12.5 µg/mL (≈ 22.9 µM) |
| NC1CCN(c2nc3c(cc2F)c(=O)c(C(=O)O)cn3-c2ccc(F)cc2F)C1 (centres unmarked) [tosufloxacin, 7-(3-amino-1-pyrrolidinyl)-6-fluoro,1-(2,4-difluorophenyl)-1,4-dihydro-4-oxo-1,8-naphthyridine-3-carboxylic acid, reference compound] |  | 0.39 (≈ 0.965 µM) |  | 0.05 (≈ 0.124 µM) |  | 0.005 (≈ 0.0124 µM) |  |  |  | 0.39 (≈ 0.965 µM) |  |  | 0.1 (≈ 0.247 µM) |  | 0.39 (≈ 0.965 µM) | 0.02 (≈ 0.0495 µM) | 0.02 (≈ 0.0495 µM) | 0.1 (≈ 0.247 µM) | 10 (≈ 24.7 µM) | 650 (≈ 1610 µM) | AUC(0-t) at 32 h [10]: 5300 ng·h/mL; Cmax ([10]; read-out: C max (range)): 670 ng/mL; MIC (ACINETOBACTER SP CMX 669; [14]): 0.1 µg/mL (≈ 0.247 µM) |
